In paper PMC4660370 (Nature Communications, 2015):
Read-outs that look alike come from different tables or passages of the source.

Columns and labels:
[1] = target: T1, BsIMPDH (Bacillus subtilis, UniProt P21879); assay: biochemical; type: biochemical, Bacillus subtillis; conditions: for effect on catalytic activity: ATP with or without 5 mM MgCl2
T1 construct: His8 (TEV site) (N, cleaved yes); made in house; host or cells: E. coli BL21 (DE3)
Experimental: (§1) IMPDH activity was assayed by monitoring the reduction of NAD^+ to NADH and the subsequent increase in absorbance at 340 nm in buffer: 100 mM Tris-HCl, 100 mM KCl, 2 mM DTT pH 8.0. […] When Mg^+2 was included in the reaction, the total concentration of MgCl2 was 5 mM. The experimental data were fitted to the Michaelis–Menten equation of enzyme kinetics using the OriginPro software (OriginLab Corporation), to obtain the maximum apparent initial velocity (Vmax^app) and the apparent Michaelis–Menten constant (KM^app):
(§2) Following this equation, the global nonlinear regression analysis of Vmax^app and KM^app, as a function of the inhibitor concentration, allowed the intrinsic Michaelis–Menten constant (KM) and inhibition constant (Ki) for competitive inhibition to be determined. The substrate–inhibitor heterotropic cooperative interaction and the fractional activity of the ternary enzyme–substrate–inhibitor complex, α and β respectively, were estimated using a mixed inhibition model:
(§3) The constant α reflects the effect of the inhibitor on the apparent affinity of the enzyme for the substrate.

[2] = target: T2, AgIMPDH (Eremothecium gossypii, UniProt Q756Z6); assay: IMPDH activity assay and enzyme kinetics (NADH absorbance at 340 nm), AgIMPDH; type: biochemical, A. gossypii; conditions: for α (substrate–inhibitor heterotropic cooperative interaction) / β (fractional activity of the ternary enzyme–substrate-inhibitor complex): mixed inhibition model; for effect on AgIMPDH catalytic activity in vitro: adenine nucleotides
Experimental: as §1, §2, §3

[3] = test system: AgIMPDH ΔBateman; assay: IMPDH activity assay, mutant lacking the Bateman domain; type: biochemical, A. gossypii; conditions: 2 mM nucleotide
Experimental: as §1, with “(KM^app): […]” for “(KM^app):”

[4] = target: T3, HsIMPDH1 (Homo sapiens, UniProt P20839); assay: IMPDH activity assay and enzyme kinetics, HsIMPDH1; type: biochemical; conditions: for α (substrate–inhibitor heterotropic cooperative interaction) / β (fractional activity of the ternary enzyme–substrate-inhibitor complex): mixed inhibition model; for effect on catalytic activity: ATP with or without 5 mM MgCl2
T3 construct: His8 (modified pET15b vector, TEV site) (N); made in house
Experimental: as §1, §2, §3

[5] = target: T4, HsIMPDH2 (Homo sapiens, UniProt P12268); assay: IMPDH activity assay and enzyme kinetics, HsIMPDH2; type: biochemical; conditions: for α (substrate–inhibitor heterotropic cooperative interaction) / β (fractional activity of the ternary enzyme–substrate-inhibitor complex): mixed inhibition model; for effect on catalytic activity: ATP with or without 5 mM MgCl2
T4 construct: His8 (modified pET15b vector, TEV site) (N); made in house
Experimental: as §1, §2, §3

[6] = target: T5, EcIMPDH (Escherichia coli, UniProt P0ADG7); assay: biochemical; type: biochemical; conditions: for effect on catalytic activity: ATP with or without 5 mM MgCl2
T5 construct: His8 (TEV site) (N, cleaved yes); made in house; host or cells: E. coli BL21 (DE3)
Experimental: as §1, §2, §3

[7] = target: AgIMPDH-ΔBateman (Eremothecium gossypii, UniProt Q756Z6, DEL116-235/INS115SQDG); assay: Isothermal titration calorimetry, AgIMPDH-ΔBateman; type: binding, A. gossypii
Experimental: (§4) Standard ITC experiments were performed using an AutoITC200 system (Malvern Instruments). […] The resulting heats were integrated and fitted to a single binding site model implemented in the software package Origin (OriginLab Corporation).

[8] = target: T2, AgIMPDH; assay: biochemical
Experimental: as §4

[9] = target: T2, AgIMPDH; conditions: GMP titration, WT
Experimental: as §4

T1 sequence (P21879 whole entry): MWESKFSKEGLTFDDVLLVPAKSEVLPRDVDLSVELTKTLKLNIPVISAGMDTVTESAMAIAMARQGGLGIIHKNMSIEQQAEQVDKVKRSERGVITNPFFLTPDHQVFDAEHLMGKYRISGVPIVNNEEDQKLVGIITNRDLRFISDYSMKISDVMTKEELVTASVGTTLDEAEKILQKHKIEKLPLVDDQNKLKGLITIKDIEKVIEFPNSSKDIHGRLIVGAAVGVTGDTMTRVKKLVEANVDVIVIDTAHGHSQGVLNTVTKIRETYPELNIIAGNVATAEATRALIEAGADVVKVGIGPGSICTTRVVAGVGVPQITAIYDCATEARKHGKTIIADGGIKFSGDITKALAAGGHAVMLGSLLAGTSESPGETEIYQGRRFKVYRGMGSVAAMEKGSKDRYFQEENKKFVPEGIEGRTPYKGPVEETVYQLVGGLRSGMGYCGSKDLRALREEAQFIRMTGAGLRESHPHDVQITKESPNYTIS
T3 sequence (P20839 whole entry): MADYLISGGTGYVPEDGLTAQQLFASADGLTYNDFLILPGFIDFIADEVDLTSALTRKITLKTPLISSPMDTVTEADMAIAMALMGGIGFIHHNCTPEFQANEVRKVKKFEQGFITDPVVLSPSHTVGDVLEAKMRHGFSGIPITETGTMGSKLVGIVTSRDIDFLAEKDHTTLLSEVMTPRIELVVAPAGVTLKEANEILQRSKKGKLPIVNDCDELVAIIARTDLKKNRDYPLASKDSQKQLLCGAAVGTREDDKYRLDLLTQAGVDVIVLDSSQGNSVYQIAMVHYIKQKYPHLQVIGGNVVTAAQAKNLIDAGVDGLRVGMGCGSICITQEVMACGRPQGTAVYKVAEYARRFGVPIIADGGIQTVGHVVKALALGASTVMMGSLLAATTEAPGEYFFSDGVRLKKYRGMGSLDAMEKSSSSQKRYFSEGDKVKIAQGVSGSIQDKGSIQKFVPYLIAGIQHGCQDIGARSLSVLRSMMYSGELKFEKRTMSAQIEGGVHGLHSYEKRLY
T5 sequence (P0ADG7 whole entry): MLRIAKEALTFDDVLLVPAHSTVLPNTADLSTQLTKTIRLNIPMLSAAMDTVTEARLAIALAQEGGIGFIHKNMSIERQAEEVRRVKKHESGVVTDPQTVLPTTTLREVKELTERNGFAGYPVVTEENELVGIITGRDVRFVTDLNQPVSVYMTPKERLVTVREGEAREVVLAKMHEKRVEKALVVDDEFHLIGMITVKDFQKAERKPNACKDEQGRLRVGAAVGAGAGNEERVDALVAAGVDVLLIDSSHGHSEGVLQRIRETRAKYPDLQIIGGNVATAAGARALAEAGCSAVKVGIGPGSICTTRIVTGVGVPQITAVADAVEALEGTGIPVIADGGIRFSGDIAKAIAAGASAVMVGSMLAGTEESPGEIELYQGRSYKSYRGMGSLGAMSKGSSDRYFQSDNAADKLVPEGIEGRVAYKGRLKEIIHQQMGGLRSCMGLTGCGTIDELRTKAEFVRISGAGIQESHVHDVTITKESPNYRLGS

Nc1nc2c(ncn2[C@@H]2O[C@H](COP(=O)(O)OP(=O)(O)OP(=O)(O)O)[C@@H](O)[C@H]2O)c(=O)[nH]1 [GTP, guanosine-5′-triphosphate]
Inhibition (type) [1]: No
Inhibition (type) [2]: Mixed type
α (substrate–inhibitor heterotropic cooperative interaction) [2]: 4.1±0.7
β (fractional activity of the ternary enzyme–substrate-inhibitor complex) [2]: 0.24±0.05
Ki ([2]; read-out: Ki): 160 ± 40 µM
effect on enzymatic activity of ΔBateman mutant (KM app/KM) [3]: not significantly affected
Inhibition (type) [4]: Mixed type
Ki [4]: 540 ± 60 µM
α (substrate–inhibitor heterotropic cooperative interaction) [4]: 3.8±0.5
β (fractional activity of the ternary enzyme–substrate-inhibitor complex) [4]: 0.11±0.04
Inhibition (type) [5]: Mixed type
Ki [5]: 480 ± 60 µM
α (substrate–inhibitor heterotropic cooperative interaction) [5]: 3.0±0.4
β (fractional activity of the ternary enzyme–substrate-inhibitor complex) [5]: 0.51±0.08
Inhibition (type) [6]: Competitive

Nc1ncnc2c1ncn2[C@@H]1O[C@H](COP(=O)(O)OP(=O)([O-])OP(=O)([O-])O)[C@@H](O)[C@H]1O.[Mg+2] [Mg-ATP]
effect on catalytic activity [1]: neither ATP nor Mg-ATP showed a significant effect
effect on catalytic activity of AgIMPDH (Vmax app/Vmax, KM app/KM) ([2]; total MgCl2 5 mM): not affected
effect on catalytic activity [4]: neither ATP nor Mg-ATP showed a significant effect
effect on catalytic activity [5]: neither ATP nor Mg-ATP showed a significant effect
effect on catalytic activity [6]: neither ATP nor Mg-ATP showed a significant effect

Nc1nc2c(ncn2[C@@H]2O[C@H](COP(=O)(O)O)[C@@H](O)[C@H]2O)c(=O)[nH]1 [GMP, guanosine-5′-monophosphate]
Inhibition (type) [1]: Competitive
Ki [1]: 420 ± 70 µM
Inhibition (type) [2]: Competitive
Ki [2]: 600 ± 100 µM
Kd [7]: 22 µM
n (binding stoichiometry) ([7]; GMP titration, ΔBateman): 1.0
ΔH ([7]; GMP titration, ΔBateman): -7.7 kcal/mol
Kd [8]: 24 µM
effect on enzymatic activity of ΔBateman mutant (KM app/KM) [3]: inhibited the wild-type and ΔBateman enzymes in a similar manner
n (binding stoichiometry) [9]: 0.9
ΔH [9]: -9.1 kcal/mol
Inhibition (type) [4]: Competitive
Inhibition (type) [5]: Competitive
Inhibition (type) [6]: Competitive
Ki [6]: 1100 ± 100 µM

Nc1nc2c(ncn2[C@@H]2O[C@H](COP(=O)(O)OP(=O)(O)O)[C@@H](O)[C@H]2O)c(=O)[nH]1 [GDP, guanosine-5′-diphosphate]
Inhibition (type) [1]: Mixed type—weak
Ki [1]: 2300 ± 400 µM
α (substrate–inhibitor heterotropic cooperative interaction) ([1]; mixed inhibition model): 2.9±0.4
β (fractional activity of the ternary enzyme–substrate-inhibitor complex) ([1]; mixed inhibition model): 0.8±0.1
Inhibition (type) [2]: Mixed type
α (substrate–inhibitor heterotropic cooperative interaction) [2]: 6.5±0.8
β (fractional activity of the ternary enzyme–substrate-inhibitor complex) [2]: 0.033±0.005
Ki ([2]; read-out: Ki): 210 ± 40 µM
effect on enzymatic activity of ΔBateman mutant (KM app/KM) [3]: not significantly affected
Inhibition (type) [4]: Mixed type
Ki [4]: 230 ± 40 µM
α (substrate–inhibitor heterotropic cooperative interaction) [4]: 4.7±0.7
β (fractional activity of the ternary enzyme–substrate-inhibitor complex) [4]: 0.12±0.04
Inhibition (type) [5]: Mixed type
Ki [5]: 610 ± 60 µM
α (substrate–inhibitor heterotropic cooperative interaction) [5]: 6.6±0.8
β (fractional activity of the ternary enzyme–substrate-inhibitor complex) [5]: 0.14±0.05
Inhibition (type) [6]: No

Nc1ncnc2c1ncn2[C@@H]1O[C@H](COP(=O)(O)OP(=O)(O)OP(=O)(O)O)[C@@H](O)[C@H]1O [ATP]
effect on catalytic activity [1]: neither ATP nor Mg-ATP showed a significant effect
effect on AgIMPDH catalytic activity in vitro [2]: did not exert any significant effect
effect on catalytic activity [4]: neither ATP nor Mg-ATP showed a significant effect
effect on catalytic activity [5]: neither ATP nor Mg-ATP showed a significant effect
effect on catalytic activity [6]: neither ATP nor Mg-ATP showed a significant effect

Nc1ncnc2c1ncn2[C@@H]1O[C@H](COP(=O)(O)O)[C@@H](O)[C@H]1O [AMP]
effect on AgIMPDH catalytic activity in vitro [2]: did not exert any significant effect

Nc1ncnc2c1ncn2[C@@H]1O[C@H](COP(=O)(O)OP(=O)(O)O)[C@@H](O)[C@H]1O [ADP]
effect on AgIMPDH catalytic activity in vitro [2]: did not exert any significant effect
